The target of assay [1] is T1, G12C K-Ras4B (1-169) (Homo sapiens, UniProt P01116, G12C).
T1 construct: G12C K-Ras4B (1-169) protein, which was a KRAS G12C mutant; His tag (N, cleaved yes); made in house; host or cells: E. coli BL21 (DE3)
The assay can be described thus: Binding to KRAS G12C mutant, compound binding rate by LC-MS. To be noted: final compound concentration 2 μM, 1 μM protein, 2 hours at 25° C. In outline: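 Covalent labelling at 2 μM final compound on a mix of 1 μM each wild-type and G12C K-Ras4B (1-169) (E. coli-expressed, tag removed) in 1×TBS, 0.1 mM TCEP, 2 h at 25° C., quenched with formic acid. Intact-protein ESI Q-TOF LC-MS; binding rate from adduct vs unbound protein signal, graded A–E in 20% bands.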

Assay [2] deals with T2, KRAS G12C mutant (Homo sapiens, UniProt P01116, G12C).
T2 construct: 50 μM G12C K-Ras4B (1-169) protein and 1 mM BODIPY® FL GDP; His tag (N, cleaved yes); made in house; host or cells: E. coli BL21 (DE3)
The assay can be described thus: Inhibition of SOS1-mediated nucleotide (GDP-GTP) exchange reaction of KRAS G12C mutant, BODIPY FL GDP fluorescence. It counts as biochemical. To be noted: preincubated 25° C. 4 hours with 25 nM KRAS G12C bound with BODIPY FL GDP; SOS1 100 nM, GppNHp 1 μM, 30 minutes. In outline: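 KRAS G12C (1-169) loaded with BODIPY FL GDP (25 nM) was preincubated with compound (5% DMSO) for 4 h at 25 °C. Exchange then ran 30 min with SOS1 (564-1049, 100 nM) and 1 µM GppNHp. IC50 came from the 485/520 nm fluorescence change, normalized to DMSO and no-GppNHp controls.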

Assay [3] deals with NCI-H358 cells. The assay can be described thus: Growth inhibition of KRAS-G12C mutant cell line NCI-H358 (CellTiter-Glo 2.0). Type of assay: cell-based. To be noted: Homo sapiens, 72 h; NCI-H358, 3-day culture with compound. As for the experimental part: KRAS-G12C mutant human lung cancer cell line NCI-H358 cells (ATCC, Cat #: CRL-5807) were suspended in RPMI1640 medium (manufactured by Fujifilm Wako Pure Chemical Corp.) containing 10% fetal bovine serum. The cell suspension was seeded at 500 cells/well into the wells of a 384-well flat-bottom microplate and cultured at 37° C. for 1 day in an incubator containing 5% CO2. The compound of the present invention was dissolved in DMSO and diluted with DMSO such that the concentration of the test compound was 500 times the final concentration. The solution of the test compound in DMSO was diluted with the medium used for suspending the cells, and the resultant was added to each well of the cell culture plate such that the final concentration of DMSO was 0.2%, followed by culture at 37° C. for another 3 days in an incubator containing 5% CO2.
Growth inhibition rate (%)=(C−T)/(C)×100 • T: the emission intensity in a well supplemented with the test compound. • C: the emission intensity in a well not supplemented with the test compound.

Regarding `C=CC(=O)N1CC(NC(=O)c2cnc(CNc3cc(C(C)(C)C)c(Cl)cc3O)n2CCN(C)C)C1` [Example 38, N-(1-Acryloylazetidin-3-yl)-2-(((5-(tert-butyl)-4-chloro-2-hydroxyphenyl)amino)methyl)-1-(2-(dimethylamino)ethyl)-1H-imidazole-5-carboxamide], the “binding rate for G12C K-Ras4B (1-169)” value in assay [1] is “A (80% or more)”. For the same molecule, the IC50 was determined as 9 nM in assay [2] and 708 nM in assay [3].

Turning to `C=CC(=O)N1CC(NC(=O)c2c(C)nc(CNc3cc(C(C)(C)C)c(Cl)cc3O)n2C)C1` [Example 39, N-(1-Acryloylazetidin-3-yl)-2-(((5-(tert-butyl)-4-chloro-2-hydroxyphenyl)amino)methyl)-1,4-dimethyl-1H-imidazole-5-carboxamide], the “binding rate for G12C K-Ras4B (1-169)” value in assay [1] is “A (80% or more)”. Moreover, the IC50 in assay [2] is 5 nM; in assay [3], 112 nM.

`C=CC(=O)N1CC(NC(=O)c2c(C)nc(CNc3cc(C(C)(C)C)c(Cl)cc3O)n2Cc2ccccc2)C1` [Example 40, N-(1-Acryloylazetidin-3-yl)-1-benzyl-2-(((5-(tert-butyl)-4-chloro-2-hydroxyphenyl)amino)methyl)-4-methyl-1H-imidazole-5-carboxamide]: the “binding rate for G12C K-Ras4B (1-169)” value in assay [1] is “A (80% or more)”. Moreover, the IC50 in assay [2] was determined as 13 nM; in assay [3], 535 nM.

For `C=CC(=O)N1CC(NC(=O)c2c(C)nc(CNc3cc(C(C)(C)C)c(Cl)cc3O)n2CC)C1` [Example 41, N-(1-Acryloylazetidin-3-yl)-2-(((5-(tert-butyl)-4-chloro-2-hydroxyphenyl)amino)methyl)-1-ethyl-4-methyl-1H-imidazole-5-carboxamide], the “binding rate for G12C K-Ras4B (1-169)” value in assay [1] is given as “A (80% or more)”. Further, the IC50 in assay [2] came to 8 nM; in assay [3], 281 nM.

On to `C=CC(=O)N1CC(NC(=O)c2c(C)nc(CNc3cc(C(C)(C)C)c(Cl)cc3O)n2C(C)C)C1` [Example 42, N-(1-Acryloylazetidin-3-yl)-2-(((5-(tert-butyl)-4-chloro-2-hydroxyphenyl)amino)methyl)-1-isopropyl-4-methyl-1H-imidazole-5-carboxamide], for which the “binding rate for G12C K-Ras4B (1-169)” value in assay [1] is “A (80% or more)”. The figures for the IC50 in assay [2] and in assay [3] were 11 nM and 301 nM, respectively.

As for `C=CC(=O)N1CC(NC(=O)c2c(C)nc(CNc3cc(C(C)(C)C)c(Cl)cc3O)n2CCCC)C1` [Example 43, N-(1-Acryloylazetidin-3-yl)-1-butyl-2-(((5-(tert-butyl)-4-chloro-2-hydroxyphenyl)amino)methyl)-4-methyl-1H-imidazole-5-carboxamide], in assay [1], the “binding rate for G12C K-Ras4B (1-169)” value is “A (80% or more)”. Moreover, the figures for the concentration for half-maximal inhibition (IC50) in assay [2] and in assay [3] were 7 nM and 351 nM, respectively.

As for `C=CC(=O)N1CC(NC(=O)c2c(C)nc(CNc3cc(C(C)(C)C)c(Cl)cc3O)n2CCC)C1` [Example 44, N-(1-Acryloylazetidin-3-yl)-2-(((5-(tert-butyl)-4-chloro-2-hydroxyphenyl)amino)methyl)-4-methyl-1-propyl-1H-imidazole-5-carboxamide], the “binding rate for G12C K-Ras4B (1-169)” value in assay [1] is “A (80% or more)”. Besides, the IC50 in assay [2] amounted to 9 nM; in assay [3], 511 nM.

For `C=CC(=O)N1CC(NC(=O)c2c(C)nc(CNc3cc(C(C)(C)C)c(Cl)cc3O)n2C2CCCC2)C1` [Example 45, N-(1-Acryloylazetidin-3-yl)-2-(((5-(tert-butyl)-4-chloro-2-hydroxyphenyl)amino)methyl)-1-cyclopentyl-4-methyl-1H-imidazole-5-carboxamide], in assay [1], the “binding rate for G12C K-Ras4B (1-169)” value is recorded as “A (80% or more)”. Besides, the IC50 in assay [2] came to 16 nM; in assay [3], 576 nM.

Take `C=CC(=O)N1CC(NC(=O)c2c(C)nc(CNc3cc(C(C)(C)C)c(Cl)cc3O)n2Cc2cccnc2)C1` [Example 46, N-(1-Acryloylazetidin-3-yl)-2-(((5-(tert-butyl)-4-chloro-2-hydroxyphenyl)amino)methyl)-4-methyl-1-(pyridin-3-ylmethyl)-1H-imidazole-5-carboxamide]: in assay [1], the “binding rate for G12C K-Ras4B (1-169)” value is reported as “A (80% or more)”. Besides, the IC50 in assay [2] came out at 5 nM; in assay [3], 916 nM.

`C=CC(=O)N1CC(NC(=O)c2c(C)nc(CNc3cc(C(C)(C)C)c(C)cc3O)n2C)C1` [Example 76, N-(1-Acryloylazetidin-3-yl)-2-(((5-(tert-butyl)-2-hydroxy-4-methylphenyl)amino)methyl)-1,4-dimethyl-1H-imidazole-5-carboxamide]: the “binding rate for G12C K-Ras4B (1-169)” value in assay [1] is reported as “A (80% or more)”. The IC50 in assay [2] was determined as 17 nM; in assay [3] it was 399 nM.

Regarding `C=CC(=O)N1CC(NC(=O)c2c(C)nc(CNc3cc(C(C)(C)C)c(C)cc3O)n2C(C)C)C1` [Example 78, N-(1-Acryloylazetidin-3-yl)-2-(((5-(tert-butyl)-2-hydroxy-4-methylphenyl)amino)methyl)-1-isopropyl-4-methyl-1H-imidazole-5-carboxamide], the “binding rate for G12C K-Ras4B (1-169)” value in assay [1] is reported as “A (80% or more)”. Moreover, the values for the IC50 in assay [2] and in assay [3] were 50 nM and 993 nM, respectively.

Take `C=CC(=O)N1CC(NC(=O)c2c(C)nc(Cc3cc(C(C)(C)C)c(Cl)cc3O)n2C)C1` [Example 92, N-(1-Acryloylazetidin-3-yl)-2-(5-(tert-butyl)-4-chloro-2-hydroxybenzyl)-1,4-dimethyl-1H-imidazole-5-carboxamide]: the “binding rate for G12C K-Ras4B (1-169)” value in assay [1] is “B (60% or more and less than 80%)”. Moreover, the IC50 in assay [2] came out at 55 nM; in assay [3] it was 1100 nM.

On to `C=CC(=O)N1CC(NC(=O)c2c(C)nn(Cc3cc(C(C)(C)C)c(Cl)cc3O)c2C)C1` [Example 96, N-(1-Acryloylazetidin-3-yl)-1-(5-(tert-butyl)-4-chloro-2-hydroxybenzyl)-3,5-dimethyl-1H-pyrazole-4-carboxamide], for which the “binding rate for G12C K-Ras4B (1-169)” value in assay [1] was “A (80% or more)”. The values for the IC50 in assay [2] and in assay [3] were 65 nM and 1360 nM, respectively.

On to `C=CC(=O)N1CC(NC(=O)c2cnc(Cc3cc(C(C)(C)C)c(Cl)cc3O)n2C)C1` [Example 97, N-(1-Acryloylazetidin-3-yl)-2-(5-(tert-butyl)-4-chloro-2-hydroxybenzyl)-1-methyl-1H-imidazole-5-carboxamide], for which the “binding rate for G12C K-Ras4B (1-169)” value in assay [1] is given as “A (80% or more)”. For the same molecule, the results for the IC50 in assay [2] and in assay [3] were 22 nM and 683 nM, respectively.

These data come from US12479834B2, “Phenol compound or salt thereof” (TAIHO PHARMACEUTICAL CO., LTD., priority 2019, dated 2025).
